Test results from US9133207B2, “Tetrandrine derivatives with substituted 5-carbon, preparation method and use thereof” (Hangzhou Bensheng Pharmaceutical Co., Ltd., priority 2011, dated 2015).
In brackets after ≈: the same amount, converted by molar mass.

How the values were obtained:
[1] = system: RPMI8226 (multiple myeloma); assay: Multiple myeloma cell growth inhibition, MTT, 72 h (Example 6); assay type: cell-based, human; conditions: Homo sapiens, RPMI-8226; 72 h, MTT, RPMI8226
Experimental: Multiple myeloma and lymphoma cell lines: RPMI8226 (multiple myeloma), purchased from Fuxiang Bio-tech Co. Ltd., Shanghai, China.
(§1) Reagents: the same as in Example 5.
(§2) Obtaining 6000 well-growing leukemia cells and inoculating them into wells of a 96-well cell culture plate. The culture medium is a 1640 cell culture medium containing 10% fetal bovine serum. After adding the tetrandrine derivatives of different concentrations and mixing uniformly, placing the plate in a carbon dioxide cell incubator (5% CO2) at 37° C. and incubated for 72 hours. Then the viable cell concentration is determined by the MTT method.

[2] = system: Kasumi-1 (acute myeloid leukemia M2 type, AML-M2); assay: Leukemia cell growth inhibition, MTT, 72 h (Example 5); assay type: cell-based, human; conditions: Homo sapiens, Kasumi 1
Source text: (§3) Leukemia cell lines: leukemia cell lines: K562/adr (drug-resistant, chronic myeloid leukemia, CML), NB4 (acute promyelocytic leukemia, AML), Kasumi-1 (acute myeloid leukemia M2 type, AML-M2), Jurkat (acute lymphoblastic leukemia, ALL), all of which are donated by Cancer Research Institute of Zhejiang University, China; and H9 (acute lymphoblastic leukemia, ALL), which is purchased from China Center for Type Culture Collection.
(§4) Reagents: The standard sample of tetrandrine (TTD) is purchased from Ci Yuan Biotechnology Co., Ltd., Shaanxi, China; and the 5-substituted tetrandrine derivatives of the present invention.
as §2, with “incubating” for “incubated”

[3] = system: Jurkat (acute lymphoblastic leukemia, ALL); assay: as above; assay type: cell-based, human; conditions: Homo sapiens, Jurkat; 72 h, MTT
Source text: as §3, §4
as §2, with “incubating” for “incubated”

[4] = system: K562/adr (drug-resistant, chronic myeloid leukemia, CML); assay: as above; assay type: cell-based, human; conditions: Homo sapiens, K562/Adr; 72 h, MTT
Source text: as §3, §4
as §2, with “incubating” for “incubated”

[5] = system: H9 (acute lymphoblastic leukemia, ALL); assay: as above; assay type: cell-based, human; conditions: Homo sapiens; 72 h, MTT
Source text: as §3, §4
as §2, with “incubating” for “incubated”

A549 (human lung cancer) = assay: Solid tumor cell growth inhibition, MTT, 72 h (Example 7); assay type: cell-based; conditions: Homo sapiens; 72 h, MTT, A549
Experimental: (§5) Human solid tumor cell lines: Hep-2 (laryngeal carcinoma), A549 (human lung cancer), CaES-17 (esophageal cancer cell), PC-3 (prostate cancer), CNE (nasopharyngeal carcinoma cell) and SK-OV-3 (ovarian cancer cell), all of which are purchased from China Center For Type Culture Collection; RKO (human colon adenocarcinoma cell), MGC 803 (human gastric cancer cell), MG63 (osteosarcoma), and U87 MG (malignant glioma cell), all of which are purchased from Fuxiang Bio-tech Co. Ltd., Shanghai, China; PANC-1 (pancreatic cancer), Huh? (human liver cancer cell), Becap37 (human breast cancer cell), and Hela (human cervical cancer cell), all of which are donated by Cancer Research Institute of Zhejiang University, China.
as §1
(§6) Obtaining 4000 well-growing human solid tumor cells and inoculating them into wells of a 96-well cell culture plate. The culture medium is DMEM High Glucose cell culture medium containing 10% fetal bovine serum. The plate is placed in a carbon dioxide cell incubator (5% CO2) at 37° C. and incubated for 24 hours. After been added with tetrandrine derivatives of different concentration and mixing uniformly, the plate is placed in a carbon dioxide cell incubator (5% CO2) at 37° C. and incubated for 72 hours. Then the viable cell concentration is determined by the MTT method and the cell viability (%) after drug treatment is calculated. In this experiment, the cell viability of control group (not treated with any compound) is set as 100%.

[6] = system: MGC 803 (human gastric cancer cell); assay: as above; assay type: cell-based; conditions: Homo sapiens
Experimental: as §5, §1, §6

[7] = system: Becap37 (human breast cancer cell); assay: as above; assay type: cell-based; conditions: Homo sapiens; 72 h, MTT, Becap-37
Experimental: as §5, §1, §6

[8] = system: Huh7 (human liver cancer cell); assay: as above; assay type: cell-based; conditions: Homo sapiens; 72 h, MTT, Huh-7
Experimental: as §5, §1, §6

[9] = system: CaES-17 (esophageal cancer cell); assay: as above; assay type: cell-based, human; conditions: Homo sapiens, CaEs17; 72 h, MTT, CAES-17
Experimental: as §5, §1, §6

MG63 (osteosarcoma) = assay: as above; assay type: cell-based, human; conditions: Homo sapiens; 72 h, MTT, MG-63
Experimental: as §5, §1, §6

[10] = system: PANC-1 (pancreatic cancer); assay: as above; assay type: cell-based, human; conditions: Homo sapiens; 72 h, MTT, PANC-1
Experimental: as §5, §1, §6

PC-3 (prostate cancer) = assay: as above; assay type: cell-based, human; conditions: Homo sapiens; 72 h, MTT, PC-3
Experimental: as §5, §1, §6

IC50 [1] [µg/mL] | IC90 [1] [µg/mL] | IC50 [2] [µg/mL] | IC90 [2] [µg/mL] | IC50 [3] [µg/mL] | IC90 [3] [µg/mL] | IC50 [4] [µg/mL] | IC90 [4] [µg/mL] | IC50 [5] [µg/mL] | IC90 [5] [µg/mL] | IC50 (A549 (human lung cancer)) [µg/mL] | IC90 (A549 (human lung cancer)) [µg/mL] | IC50 [6] [µg/mL] | IC90 [6] [µg/mL] | IC50 [7] [µg/mL] | IC90 [7] [µg/mL] | IC50 [8] [µg/mL] | IC90 [8] [µg/mL] | IC50 [9] [µg/mL] | IC90 [9] [µg/mL] | SMILES | other results
0.35 (≈ 0.515 µM) | 3.31 (≈ 4.87 µM) | 5.64 (≈ 8.3 µM) | 16 (≈ 23.5 µM) | 9.14 (≈ 13.4 µM) | > 16 | 1.8 (≈ 2.65 µM) | 16 (≈ 23.5 µM) | 6.87 (≈ 10.1 µM) | 22.1 (≈ 32.5 µM) | > 16 | > 16 | 9.67 (≈ 14.2 µM) | 15.1 (≈ 22.2 µM) | 9.8 (≈ 14.4 µM) | > 10 | 4.71 (≈ 6.93 µM) | 7.88 (≈ 11.6 µM) | 4.8 (≈ 7.06 µM) | 25.8 (≈ 37.9 µM) | COc1ccc2cc1Oc1ccc(cc1)C[C@H]1c3cc(c(OC)cc3CCN1C)Oc1c(OC)c(OC)c(CN(C)C)c3c1[C@H](C2)N(C)CC3 [BS-TE-341] | IC50 (MG63 (osteosarcoma)): 3.16 µg/mL (≈ 4.65 µM); IC90 (MG63 (osteosarcoma)): 9.8 µg/mL (≈ 14.4 µM); IC50 [10]: > 10 µg/mL; IC90 [10]: > 10 µg/mL
0.14 (≈ 0.187 µM) | 0.89 (≈ 1.19 µM) | 1.95 (≈ 2.6 µM) | 6.41 (≈ 8.56 µM) | 2.22 (≈ 2.96 µM) | 5.71 (≈ 7.62 µM) | 0.57 (≈ 0.761 µM) | 2.06 (≈ 2.75 µM) | 1.71 (≈ 2.28 µM) | 2.5 (≈ 3.34 µM) | 2.44 (≈ 3.26 µM) | 5.61 (≈ 7.49 µM) | 1.06 (≈ 1.42 µM) | 1.9 (≈ 2.54 µM) | 1.9 (≈ 2.54 µM) | 3.31 (≈ 4.42 µM) | 1.09 (≈ 1.46 µM) | 1.91 (≈ 2.55 µM) | 1.74 (≈ 2.32 µM) | 5.98 (≈ 7.98 µM) | COc1ccc2cc1Oc1ccc(cc1)C[C@H]1c3cc(c(OC)cc3CCN1C)Oc1c(OC)c(OC)c(COCc3ccsc3)c3c1[C@H](C2)N(C)CC3 [BS-TE-415] | IC50 (MG63 (osteosarcoma)): 1.31 µg/mL (≈ 1.75 µM); IC90 (MG63 (osteosarcoma)): 4.75 µg/mL (≈ 6.34 µM); IC50 [10]: 2.76 µg/mL (≈ 3.69 µM); IC90 [10]: 4.9 µg/mL (≈ 6.54 µM); IC50 (PC-3 (prostate cancer)): 3.5 µg/mL (≈ 4.67 µM); IC90 (PC-3 (prostate cancer)): 5.76 µg/mL (≈ 7.69 µM)
0.27 (≈ 0.366 µM) | 2 (≈ 2.71 µM) | 1.8 (≈ 2.44 µM) | 9.69 (≈ 13.1 µM) | 3.64 (≈ 4.94 µM) | 12.1 (≈ 16.5 µM) | 0.88 (≈ 1.19 µM) | 4.63 (≈ 6.28 µM) | 2.03 (≈ 2.75 µM) | 4.37 (≈ 5.93 µM) | 3.88 (≈ 5.27 µM) | 10.1 (≈ 13.7 µM) | 5.09 (≈ 6.91 µM) | 8.27 (≈ 11.2 µM) | 1.77 (≈ 2.4 µM) | 3.79 (≈ 5.14 µM) | 2.48 (≈ 3.37 µM) | 3.76 (≈ 5.1 µM) | 2.04 (≈ 2.77 µM) | 12 (≈ 16.3 µM) | COc1ccc2cc1Oc1ccc(cc1)C[C@H]1c3cc(c(OC)cc3CCN1C)Oc1c(OC)c(OC)c(COCC3CCOC3)c3c1[C@H](C2)N(C)CC3 (stereo partly shown) [BS-TE-417] | IC50 (MG63 (osteosarcoma)): 1.06 µg/mL (≈ 1.44 µM); IC90 (MG63 (osteosarcoma)): 3.66 µg/mL (≈ 4.97 µM); IC50 [10]: 4.66 µg/mL (≈ 6.32 µM); IC90 [10]: 9.5 µg/mL (≈ 12.9 µM); IC50 (PC-3 (prostate cancer)): 4.1 µg/mL (≈ 5.56 µM); IC90 (PC-3 (prostate cancer)): 7.91 µg/mL (≈ 10.7 µM)
0.06 (≈ 0.0816 µM) | 2 (≈ 2.72 µM) | 0.78 (≈ 1.06 µM) | 3.65 (≈ 4.97 µM) | 2 (≈ 2.72 µM) | 6.19 (≈ 8.42 µM) | 0.84 (≈ 1.14 µM) | 3.36 (≈ 4.57 µM) | 1.98 (≈ 2.69 µM) | 3.36 (≈ 4.57 µM) | 2.98 (≈ 4.05 µM) | 7.85 (≈ 10.7 µM) | 1.72 (≈ 2.34 µM) | 2.76 (≈ 3.76 µM) | 1.6 (≈ 2.18 µM) | 2.17 (≈ 2.95 µM) | 2 (≈ 2.72 µM) | 3.92 (≈ 5.33 µM) | 2.11 (≈ 2.87 µM) | 12.2 (≈ 16.6 µM) | COc1ccc2cc1Oc1ccc(cc1)C[C@H]1c3cc(c(OC)cc3CCN1C)Oc1c(OC)c(OC)c(CNc3nccs3)c3c1[C@H](C2)N(C)CC3 [BS-TE-320] | IC50 (MG63 (osteosarcoma)): 1.1 µg/mL (≈ 1.5 µM); IC90 (MG63 (osteosarcoma)): 2.18 µg/mL (≈ 2.97 µM); IC50 [10]: 3.52 µg/mL (≈ 4.79 µM); IC90 [10]: 9.25 µg/mL (≈ 12.6 µM)
